In patent publication US10961238B2, “Modulators of hedgehog (Hh) signaling pathway” (E-THERAPEUTICS PLC, priority 2016, dated 2021):
Like-named read-outs stand apart in the source and are kept apart here.

Experiments:
[1] = tested on: C3H10T1/2 cells; assay: C3H assay: differentiation of C3H10T1/2 cells by mSHH, measurement of alkaline phosphatase; assay type: cell-based, mouse
[2] = biological target: T1, SMO (Homo sapiens, UniProt Q99835); assay: Smoothened (SMO) binding fluorescence polarisation assay (BODIPY-cyclopamine competition); settings: SMO binding FP assay versus C3H10T1/2 cellular assay
T1 construct: expressed in transfected cells; host or cells: HEK293
T1 sequence (Q99835 28-787): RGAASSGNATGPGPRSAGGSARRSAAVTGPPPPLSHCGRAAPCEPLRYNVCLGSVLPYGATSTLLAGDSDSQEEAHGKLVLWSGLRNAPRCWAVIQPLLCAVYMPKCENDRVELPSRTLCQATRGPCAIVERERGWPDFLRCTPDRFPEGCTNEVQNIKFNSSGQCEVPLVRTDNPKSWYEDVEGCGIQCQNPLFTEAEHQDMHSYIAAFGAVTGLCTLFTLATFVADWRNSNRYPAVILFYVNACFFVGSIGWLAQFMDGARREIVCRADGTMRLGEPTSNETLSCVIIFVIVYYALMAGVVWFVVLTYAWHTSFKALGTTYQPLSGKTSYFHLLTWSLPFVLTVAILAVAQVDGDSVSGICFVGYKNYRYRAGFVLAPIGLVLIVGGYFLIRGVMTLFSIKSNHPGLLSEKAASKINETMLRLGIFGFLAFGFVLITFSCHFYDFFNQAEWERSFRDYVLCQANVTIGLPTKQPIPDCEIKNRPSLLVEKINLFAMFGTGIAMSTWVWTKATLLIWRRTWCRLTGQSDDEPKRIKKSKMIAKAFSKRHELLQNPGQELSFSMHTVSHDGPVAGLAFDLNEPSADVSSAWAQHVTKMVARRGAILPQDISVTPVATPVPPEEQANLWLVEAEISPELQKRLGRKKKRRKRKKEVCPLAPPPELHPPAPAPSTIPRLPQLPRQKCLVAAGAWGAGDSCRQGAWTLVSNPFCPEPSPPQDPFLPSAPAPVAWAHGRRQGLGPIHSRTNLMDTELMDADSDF
Experimental: Standard Protocol for Smoothened (SMO) Binding Fluorescence Polarisation Assay.
The assay measures the ability of the test compounds to compete with a fluorescently-labelled version of the known ligand, cyclopamine, for binding to SMO. The fluorescent tag used is BODIPY (boron dipyrromethene).
An aliquot of a membrane preparation from a SMO-over-expressing HEK293 cell line is diluted to protein concentration of 0.117 mg/ml in assay buffer (25 mM HEPES, 2 mM EDTA, 0.05% γ-globulin, 0.01% pluronic acid pH7.4, plus protease Inhibitor cocktail). 8.5 μl of the membrane suspension is added to each well of a black, low volume 384 well microtitre plate.
Test compounds are added in a seven point dilution range to the wells containing the membrane preparation. The final DMSO solvent concentration in the wells is maintained at 0.3%. 6.5 μl of a 6.9 nM BODIPY-cyclopamine solution is added to each of the wells (final assay concentration 3 nM).
The plate is sealed and stored in the dark at room temperature for 24 hours prior to measurement of the fluorescence polarisation signal on a Perkin Elmer Envision multi-label reader.
Table 4 below details the ratio of SMO binding compared to the potency in the C3H10T1/2 cellular assay. The small ratio between SMO binding and potency for vismodegib is considered to be reflective of the fact vismodegib acts mainly through inhibition of the SMO protein. The larger ratios for the compound of the invention are considered to be reflective of alternate actions outside of direct SMO inhibition.

[3] = tested on: SMO L416F mutant cell line; assay: C3H10T1/2 cell differentiation assay in SMO L416F mutant cell line versus wild type; assay type: cell-based, mouse; settings: for Fold reduction in potency in SMO L416F mutant cell line: SMO L416F mutant cell line compared to the wild type, C3H10T1/2 cell differentiation assay
Text: FIG. 1 is a graph of the percent inhibition of C3H10T1/2 cell differentiation of vismodegib compared to compound of the invention (compound number 174), in wild type versus SMO L416F mutant cell line.
Loss of Potency in C3H10T1/2 Cell Differentiation Assay Associated with Presence of SMO L416F Mutation.
Table 3 below details the number of fold reduction in potency of a range of compounds of the invention when applied to the SMO L416F mutant cell line compared to the wild type. SMO mutation has been described in the literature (Pricl, Sabrina, et al.) as a key mutation causative of vismodegib resistance in the clinic by interfering with drug binding.

[4] = Mus musculus, C3H 10T1/2, C3H10T1/2 cells stimulated with mSHH for 72 hours, alkaline phosphatase activity, read-out: IC50 Ranges

Compound: CC(C)(C)NC(=O)N1CCC(S(=O)(=O)N2CCC(c3c[nH]c4ncccc34)CC2)CC1 [Compound 107, N-tert-butyl-4-[4-(1H-pyrrolo[2,3-b]pyridin-3-yl)piperidin-1-yl]sulfonylpiper-idine-1-carboxamide]
- IC50 [1, 4]: 10 to 100 nM
- Ratio of potency in SMO binding assay to potency in C3H10T1/2 cellular assay [2]: 20
- Fold reduction in potency in SMO L416F mutant cell line [3]: 56

Compound: CC(C)(C)OC(=O)N1CC(S(=O)(=O)N2CCC(c3cnc4occc4c3)CC2)C1 [Compound 124, tert-butyl 3-(4-furo[2,3-b]pyridin-5-ylpiperidin-1-yl)sulfonylaze-tidine-1-carboxylate]
- IC50 [1, 4]: 10 to 100 nM
- Ratio of potency in SMO binding assay to potency in C3H10T1/2 cellular assay [2]: 82
- Fold reduction in potency in SMO L416F mutant cell line [3]: 64

Compound: CC(C)(C)CN1CC(S(=O)(=O)N2CCC(c3c[nH]c4ncccc34)CC2)C1 [Compound 143, 3-[1-[1-(2,2-Dimethylpropyl)azetidin-3-yl]sulfonyl-4-piperidyl]-1H-pyrrolo[2,3-b]pyridine]
- IC50 [1, 4]: 100 to 1000 nM
- Ratio of potency in SMO binding assay to potency in C3H10T1/2 cellular assay [2]: >17
- Fold reduction in potency in SMO L416F mutant cell line [3]: 21

Compound: O=C(OCC1CCC1)N1CC(S(=O)(=O)N2CCC(c3cn(C(=O)OCC4CCC4)c4ncccc34)CC2)C1 [Compound 154, cyclobutylmethyl 3-[1-[1-(cyclobutylmethoxycarbonyl)azetidin-3-yl]sulfonylpiper-idin-4-yl]pyrrolo[2,3-b] pyridine-1-carboxylate]
- IC50 [1, 4]: 10 to 100 nM
- Ratio of potency in SMO binding assay to potency in C3H10T1/2 cellular assay [2]: 66
- Fold reduction in potency in SMO L416F mutant cell line [3]: 28

Compound: CC(C)[C@H]1CC[C@H](C)C[C@@H]1OC(=O)N1CC(S(=O)(=O)N2CCC(c3c[nH]c4ncccc34)CC2)C1 [Compound 166, [(1S,2R,5S)-5-methyl-2-propan-2-ylcyclohexyl] 3-[4-(1H-pyrrolo[2,3-b]pyridin-3-yl)piperidin-1-yl]sulfonylaze-tidine-1-carboxylate]
- IC50 [1, 4]: < 10 nM
- Fold reduction in potency in SMO L416F mutant cell line [3]: 51

Compound: O=C(OCC1CCCCC1)N1CC(S(=O)(=O)N2CCC(c3c[nH]c4ncccc34)CC2)C1 [Compound 168, cyclohexylmethyl 3-[4-(1H-pyrrolo[2,3-b]pyridin-3-yl)piperidin-1-yl]sulfonylaze-tidine-1-carboxylate]
- IC50 [1, 4]: 10 to 100 nM
- Fold reduction in potency in SMO L416F mutant cell line [3]: 33

Compound: O=C(NC12CC3CC(CC(C3)C1)C2)N1CC(S(=O)(=O)N2CCC(c3c[nH]c4ncccc34)CC2)C1 [Compound 171, N-(1-adamantyl)-3-[4-(1H-pyrrolo [2,3-b]pyridin-3-yl)piperidin-1-yl]sulfonylaze-tidine-1-carboxamide]
- IC50 ([1]; C3H10T1/2 cells stimulated with mSHH for 72 hours, alkaline phosphatase activity, read-out: IC50 Ranges): < 10 nM
- Fold reduction in potency in SMO L416F mutant cell line [3]: 38

Compound: CC(C)(C)NC(=S)N1CC(S(=O)(=O)N2CCC(c3c[nH]c4ncccc34)CC2)C1 [Compound 174, N-tert-butyl-3-[4-(1H-pyrrolo[2,3-b]pyridin-3-yl)piperidin-1-yl]sulfonylaze-tidine-1-carbothioamide]
- IC50 [1, 4]: 10 to 100 nM
- percent inhibition of C3H10T1/2 cell differentiation ([3]; FIG. 1, compared to vismodegib, wild type versus SMO L416F mutant cell line): a lower concentration of compound 174 is required to achieve the same percent inhibition of differentiation

Compound: CC(C)(C)CC(C)(C)NC(=O)N1CC(S(=O)(=O)N2CCC(c3c[nH]c4ncccc34)CC2)C1 [Compound 175, 3-[4-(1H-pyrrolo[2,3-b]pyridin-3-yl)piperidin-1-yl]sulfonyl-N-(2,4,4-trimethylpentan-2-yl)azetidine-1-carboxamide]
- IC50 [1, 4]: < 10 nM
- Fold reduction in potency in SMO L416F mutant cell line [3]: 40

Compound: CC(C)(C)OC(=O)N1CC(S(=O)(=O)N2CCC(c3csc4ncccc34)CC2)C1 [Compound 177, tert-butyl 3-(4-thieno [2,3-b]pyridin-3-ylpiperidin-1-yl)sulfonylaze-tidine-1-carboxylate]
- IC50 [1, 4]: 10 to 100 nM
- Fold reduction in potency in SMO L416F mutant cell line [3]: 37

Compound: O=C(OCc1ccccc1C(F)(F)F)N1CC(S(=O)(=O)N2CCC(c3c[nH]c4ncccc34)CC2)C1 [Compound 216, [2-(trifluoromethyl)phenyl]methyl 3-[4-(1H-pyrrolo[2,3-b]pyridin-3-yl)piperidin-1-yl]sulfonylaze-tidine-1-carboxylate]
- IC50 [1, 4]: < 10 nM
- Fold reduction in potency in SMO L416F mutant cell line [3]: 47

Compound: COc1ccccc1OC(=O)N1CC(S(=O)(=O)N2CCC(c3c[nH]c4ncccc34)CC2)C1 [Compound 217, (2-methoxyphenyl) 3-[4-(1H-pyrrolo[2,3-b]pyridin-3-yl)piperidin-1-yl]sulfonylaze-tidine-1-carboxylate]
- IC50 [1, 4]: < 10 nM
- Fold reduction in potency in SMO L416F mutant cell line [3]: 34

Compound: Cc1ccnc2[nH]cc(C3CCN(S(=O)(=O)C4CN(C(=O)OC(C)(C)C)C4)CC3)c12 [Compound 223, tert-butyl 3-[4-(4-methyl-1H-pyrrolo[2,3-b]pyridin-3-yl)piperidin-1-yl]sulfonylaze-tidine-1-carboxylate]
- IC50 [1, 4]: 10 to 100 nM
- Ratio of potency in SMO binding assay to potency in C3H10T1/2 cellular assay [2]: 21
- Fold reduction in potency in SMO L416F mutant cell line [3]: 26

Compound: CC(C)(C)OC(=O)N1CCCC(S(=O)(=O)N2CCC(c3c[nH]c4ncccc34)CC2)C1 (centres unmarked) [Compound 248, tert-butyl 3-[4-(1H-pyrrolo[2,3-b]pyridin-3-yl)piperidin-1-yl]sulfonylpiper-idine-1-carboxylate]
- IC50 [1, 4]: 100 to 1000 nM
- Fold reduction in potency in SMO L416F mutant cell line [3]: 10

Compound: CC(C)[C@@H](CO)NC(=O)N1CC(S(=O)(=O)N2CCC(c3c[nH]c4ncccc34)CC2)C1 [Compound 250, N-[(2S)-1-hydroxy-3-methylbutan-2-yl]-3-[4-(1H-pyrrolo[2,3-b]pyridin-3-yl)piperidin-1-yl]sulfonylaze-tidine-1-carboxamide]
- IC50 [1, 4]: 10 to 100 nM
- Fold reduction in potency in SMO L416F mutant cell line [3]: 29

Compound: CS(=O)(=O)c1ccc(C(=O)Nc2ccc(Cl)c(-c3ccccn3)c2)c(Cl)c1 [Vismodegib, reference compound]
- IC50 ([1]; Mus musculus, C3H 10T1/2, reference compounds run in the C3H assay, read-out: mean IC50): 6.3 nM
- Ratio of potency in SMO binding assay to potency in C3H10T1/2 cellular assay [2]: 2.2
- Fold reduction in potency in SMO L416F mutant cell line [3]: 202
